# Molecular target: T1, human KCNK13 (Homo sapiens, UniProt Q9HB14)
# T1 construct: expressed in transfected cells
# T1 sequence (Q9HB14 1-408): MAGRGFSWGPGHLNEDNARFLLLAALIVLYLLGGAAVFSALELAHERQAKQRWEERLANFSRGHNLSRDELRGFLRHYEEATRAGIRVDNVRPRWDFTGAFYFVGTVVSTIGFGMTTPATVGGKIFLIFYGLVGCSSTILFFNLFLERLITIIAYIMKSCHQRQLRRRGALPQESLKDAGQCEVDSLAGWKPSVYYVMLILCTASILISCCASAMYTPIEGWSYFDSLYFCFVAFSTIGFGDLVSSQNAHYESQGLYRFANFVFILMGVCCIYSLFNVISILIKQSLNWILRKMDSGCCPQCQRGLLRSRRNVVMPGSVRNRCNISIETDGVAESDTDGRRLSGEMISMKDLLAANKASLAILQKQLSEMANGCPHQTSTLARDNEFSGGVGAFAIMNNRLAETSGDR
# Assay: KCNK13 antagonist activity, thallium (Tl+) flux FLIPR assay
# Format: cell-based
# Conditions: HEK 293 cells stably expressing human KCNK13; Tl+ sensitive dye, FLIPR; compounds 15 minutes prior to thallium sulfate; 10 point half log curves from 10 PM; read-out: hKCNK13 IC50
# Procedure, shortened: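 HEK 293 cells stably expressing human KCNK13 loaded with Tl+-sensitive dye for 1 h at room temperature. Compounds (10-point half-log curves) preincubated 15 min before thallium sulfate stimulus, fluorescence tracked by FLIPR. IC50 from ten-point curves, each point the mean of two wells.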
row,SMILES,IC50
1,"Cc1cn(C)nc1-c1nc2ccccc2n1Cc1cccnc1 [Example 113, 2-(1,4-dimethylpyrazol-3-yl)-1-(pyridin-3-ylmethyl)benzimidazole]",< 500 nM
2,"Cn1nccc1-c1nc2ccccc2n1Cc1cccnc1 [Example 114, 2-(1-methylpyrazol-5-yl)-1-(pyridin-3-ylmethyl)benzimidazole]",< 1000 nM
3,"Nc1nonc1-c1nc2ccccc2n1Cc1ccccn1 [Example 115, 4-[1-(pyridin-2-ylmethyl)benzimidazol-2-yl]-1,2,5-oxadiazol-3-amine]",< 1000 nM
4,"CCc1nonc1-c1nc2ccccc2n1Cc1cccnc1 [Example 116, 3-ethyl-4-[1-(pyridin-3-ylmethyl)benzimidazol-2-yl]-1,2,5-oxadiazole]",< 1000 nM
5,"c1coc(-c2nc3ccccc3n2Cc2ccncc2)c1 [Example 117, 2-(furan-2-yl)-1-(pyridin-4-ylmethyl)benzimidazole]",< 1000 nM
6,"Brc1nsnc1-c1nc2ccccc2n1Cc1cccnc1 [Example 126, 3-bromo-4-(1-(pyridin-3-ylmethyl)benzimidazol-2-yl)-1,2,5-thiadiazole]",< 100 nM
7,"Cc1nsnc1-c1nc2ccccc2n1Cc1cccnc1 [Example 127, 3-methyl-4-[1-(pyridin-3-ylmethyl)benzimidazol-2-yl]-1,2,5-thiadiazole]",< 100 nM
8,"Cc1cnoc1-c1nc2ccccc2n1Cc1cccnc1 [Example 130, 4-methyl-5-[1-(pyridin-3-ylmethyl)benzimidazol-2-yl]isoxazole]",< 100 nM
9,"Nc1nonc1-c1nc2c(F)cccc2n1Cc1cncnc1 [Example 131, 4-[4-fluoro-1-(pyrimidin-5-ylmethyl)benzimidazol-2-yl]-1,2,5-oxadiazol-3-amine]",< 100 nM
10,"Nc1nonc1-c1nc2cc(F)cc(F)c2n1Cc1ccncc1 [Example 136, 4-(5,7-difluoro-1-(pyridin-4-ylmethyl)-benzimidazol-2-yl)-1,2,5-oxadiazol-3-amine]",< 100 nM

# Further lines, results first:
row,IC50,SMILES
1,< 100 nM,"Cc1nsnc1-c1nc2cccc(F)c2n1Cc1cccnn1 [Example 139, 3-(7-fluoro-1-(pyridazin-3-ylmethyl)-benzimidazol-2-yl)-4-methyl-1,2,5-thiadiazole]"
2,< 500 nM,"Cc1nsnc1-c1nc2c(F)cccc2n1Cc1cccnn1 [Example 140, 3-(4-fluoro-1-(pyridazin-3-ylmethyl)-benzimidazol-2-yl)-4-methyl-1,2,5-thiadiazole]"
3,< 100 nM,"Nc1nonc1-c1nc2cc(F)cc(F)c2n1Cc1cccnn1 [Example 141, 4-(5,7-difluoro-1-(pyridazin-3-ylmethyl)-benzimidazol-2-yl)-1,2,5-oxadiazol-3-amine]"
4,< 200 nM,"Nc1nonc1-c1nc2c(F)cc(F)cc2n1Cc1cccnn1 [Example 142, 4-(4,6-difluoro-1-(pyridazin-3-ylmethyl)-benzimidazol-2-yl)-1,2,5-oxadiazol-3-amine]"
5,< 200 nM,"CNc1nsnc1-c1nc2cccc(F)c2n1Cc1cccnn1 [Example 143, 4-(7-fluoro-1-(pyridazin-3-ylmethyl)-benzimidazol-2-yl)-N-methyl-1,2,5-thiadiazol-3-amine]"
6,< 1000 nM,"CNc1nsnc1-c1nc2c(F)cccc2n1Cc1cccnn1 [Example 144, 4-(4-fluoro-1-(pyridazin-3-ylmethyl)-benzimidazol-2-yl)-N-methyl-1,2,5-thiadiazol-3-amine]"
7,< 50 nM,"Nc1nonc1-c1nc2ccc(F)c(F)c2n1Cc1ccncc1 [Example 145, 4-(6,7-difluoro-1-(pyridin-4-ylmethyl)-benzimidazol-2-yl)-1,2,5-oxadiazol-3-amine]"
8,< 200 nM,"Nc1nonc1-c1nc2cccc(F)c2n1Cc1ccc(O)nn1 [Example 150, 6-((2-(4-amino-1,2,5-oxadiazol-3-yl)-7-fluoro-benzimidazol-1-yl)methyl)pyridazin-3-ol]"
9,< 50 nM,"Nc1nonc1-c1nc2c(F)ccc(F)c2n1Cc1cccnn1 [Example 154, 4-(4,7-difluoro-1-(pyridazin-3-ylmethyl)-benzimidazol-2-yl)-1,2,5-oxadiazol-3-amine]"

# From US20240158385A1, “NOVEL COMPOUNDS” (Cerevance, Inc., priority 2021, published 2024)
